Measured values: article PMC6680637, “In Silico Repositioning of Cannabigerol as a Novel Inhibitor of the Enoyl Acyl Carrier Protein (ACP) Reductase (InhA)” (Molecules, 2019)

Target: T1, Enoyl acyl carrier protein (ACP) reductase (InhA) (Mycobacterium tuberculosis, UniProt P9WGR1)
T1 construct: wild type InhA
Assay: enzyme kinetic assay, NADH oxidation at […] nm with trans-2-dodecenoyl-CoA substrate
Format: biochemical

T1 sequence (P9WGR1 whole entry, looked up): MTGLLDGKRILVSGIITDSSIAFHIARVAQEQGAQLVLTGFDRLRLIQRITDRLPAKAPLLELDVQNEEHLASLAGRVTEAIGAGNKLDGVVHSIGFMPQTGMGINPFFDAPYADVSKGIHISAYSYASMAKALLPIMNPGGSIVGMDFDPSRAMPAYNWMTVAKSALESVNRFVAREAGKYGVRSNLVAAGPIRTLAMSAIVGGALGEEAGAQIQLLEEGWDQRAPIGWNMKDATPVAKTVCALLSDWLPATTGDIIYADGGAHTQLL

CCCCCc1cc(O)c(C/C=C(\C)CCC=C(C)C)c(O)c1 [CBG, Cannabigerol] gave an IC50 of 5.2 ± 0.1 µM.
